Patent publication US4492693A, “Benzothienylglycyl cephalosporin derivatives” (priority 1983, dated 1985)
≈ marks a conversion by molar mass, not a printed value. Read-outs that look alike come from different tables or passages of the source.

Key:
[1] = system: β-lactamase, organism 265A; assay: Stability to β-lactamase (Table V); assay type: biochemical; conditions: lower numbers mean greater stability
[2] = system: Staph. aureus; assay: Expanded Spectrum MIC (Table II); assay type: cell-based; conditions: Staphylococcus aureus
How it was run: (§1)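 MICs (μg/ml) were determined by standard in vitro agar dilution.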

[3] = system: H. influenzae; assay: Expanded Spectrum MIC (Table II); assay type: cell-based; conditions: Haemophilus influenzae
How it was run: as §1

[4] = system: Haemophilus influenzae; assay: Expanded H. influenzae Spectrum MIC (Table IV); assay type: cell-based
[5] = system: Strep. A; assay: Agar Dilution MIC (Table I); assay type: cell-based; conditions: read-out: Agar Dilution MIC
Excerpt: (§3) MIC's for several known compounds are also presented for comparison.

[6] = system: Bacteroides fragilis; assay: Susceptibility of Anaerobic Bacteroides Isolates by the Agar-Dilution Method (Table III); assay type: cell-based; conditions: 24 h
How it was run: (§2)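 MICs (μg/ml) were determined by standard agar dilution against anaerobic Bacteroides isolates and read 24 h after incubation.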

[7] = system: Bacteroides thetaiotaomicron; assay: as above; assay type: cell-based; conditions: 24 h
How it was run: as §2

[8] = system: Bacteroides corrodens; assay: as above; assay type: cell-based; conditions: Eikenella corrodens; strain 1874; readings 24 hrs. after incubation
How it was run: as §2

[9] = system: Strep. D; assay: Agar Dilution MIC (Table I); assay type: cell-based; conditions: read-out: Agar Dilution MIC
How it was run: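 Activity was measured by a standard in vitro agar dilution method. The minimum inhibitory concentration is reported in μg/ml.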

[10] = system: bacteria; assay: Antibacterial activity (general statements); assay type: cell-based; conditions: anaerobic bacteria and Haemophilus influenzae, more strains
[11] = system: β-lactamase, organism 1082E; assay: Stability to β-lactamase (Table V); assay type: biochemical; conditions: lower numbers mean greater stability
[12] = system: Strep. PN; assay: Agar Dilution MIC (Table I); assay type: cell-based; conditions: strain PARK
Excerpt: as §3

[13] = system: Bacteroides fragilis; assay: Expanded anaerobic Spectrum MIC (Table IV); assay type: cell-based
[14] = system: Klebsiella; assay: Agar Dilution MIC (Table I); assay type: cell-based; conditions: Klebsiella, read-out: Agar Dilution MIC
Excerpt: as §3

[15] = system: β-lactamase, organism TEM; assay type: biochemical; conditions: lower numbers mean greater stability
[16] = system: H. influ.; assay: Agar Dilution MIC (Table I); assay type: cell-based; conditions: read-out: Agar Dilution MIC
Excerpt: as §3

[17] = system: E. coli; assay: Agar Dilution MIC (Table I); assay type: cell-based; conditions: Escherichia coli
Excerpt: as §3

[18] = system: β-lactamase, organism 1313G; assay: Stability to β-lactamase (Table V); assay type: biochemical; conditions: lower numbers mean greater stability
[19] = system: β-lactamase, organism PS185; assay: Stability to β-lactamase (Table V); assay type: biochemical; conditions: lower numbers mean greater stability
[20] = mean over strains, read-out: MIC mean

For `CC1=C(C(=O)O)N2C(=O)C(NC(=O)C(N)c3csc4ccccc34)C2SC1` (stereo not drawn) [Ex. 9, 7-(3-Benzothienyl)glycylamido-3-methyl-3-cephem-4-carboxylic acid], the “Stability to β-lactamase” value [1] was 14, the MIC ([2]; strain S224) was 1 µg/mL (≈ 2.48 µM) and the MIC ([2]; strain S225) was 1 µg/mL (≈ 2.48 µM). The MIC ([2]; strain S226) was 2 µg/mL (≈ 4.96 µM), the MIC ([2]; strain S227) was 1 µg/mL (≈ 2.48 µM) and the MIC ([2]; strain S228) was 1 µg/mL (≈ 2.48 µM). The MIC ([2]; strain S229) was 2 µg/mL (≈ 4.96 µM), the MIC ([2]; strain S230) was 1 µg/mL (≈ 2.48 µM) and the MIC ([2]; strain S231) was 1 µg/mL (≈ 2.48 µM). It also gave an MIC ([2]; strain S234) of 2 µg/mL (≈ 4.96 µM), an MIC ([2]; strain S237) of 1 µg/mL (≈ 2.48 µM) and an MIC ([2]; strain S238) of 2 µg/mL (≈ 4.96 µM). It also gave an MIC ([2]; strain S239) of 2 µg/mL (≈ 4.96 µM), an MIC ([3]; strain 76) of 1 µg/mL (≈ 2.48 µM) and an MIC ([3]; strain 105) of 1 µg/mL (≈ 2.48 µM). For the same compound, the MIC ([3]; strain 158) was 1 µg/mL (≈ 2.48 µM), the MIC ([3]; strain 164) was 1 µg/mL (≈ 2.48 µM) and the MIC ([3]; strain 169) was 1 µg/mL (≈ 2.48 µM). The MIC ([3]; strain 171) was 1 µg/mL (≈ 2.48 µM), the MIC ([3]; strain 312) was 1 µg/mL (≈ 2.48 µM) and the MIC ([3]; strain 1683) was 0.5 µg/mL (≈ 1.24 µM). The MIC ([3]; strain 1930) was 1 µg/mL (≈ 2.48 µM), the MIC ([3]; strain 4842) was 1 µg/mL (≈ 2.48 µM) and the MIC ([3]; strain C.L.) was 2 µg/mL (≈ 4.96 µM). The MIC ([3]; strain HESS) was 1 µg/mL (≈ 2.48 µM), the MIC ([3]; strain M366) was 64 µg/mL (≈ 159 µM) and the MIC ([3]; strain M370) was 1 µg/mL (≈ 2.48 µM). It also gave an MIC ([3]; strain M371) of 1 µg/mL (≈ 2.48 µM), an MIC ([3]; strain R465) of 64 µg/mL (≈ 159 µM) and an MIC ([3]; strain STEL) of 64 µg/mL (≈ 159 µM). For the same compound, the MIC ([4]; geometric mean over strains, read-out: MIC Geometric Mean) was 1.1 µg/mL (≈ 2.73 µM), the MIC [4, 20] was 2.1 µg/mL (≈ 5.2 µM) and the MIC ([4]; strain 101, read-out: MIC) was 1 µg/mL (≈ 2.48 µM). It also gave an MIC ([4]; strain 102) of 16 µg/mL (≈ 39.7 µM), an MIC ([4]; strain 103, read-out: MIC) of 0.5 µg/mL (≈ 1.24 µM) and an MIC ([4]; strain 105, read-out: MIC) of 0.5 µg/mL (≈ 1.24 µM). It also gave an MIC ([4]; strain 107, read-out: MIC) of 1 µg/mL (≈ 2.48 µM), an MIC ([4]; strain 108, read-out: MIC) of 2 µg/mL (≈ 4.96 µM) and an MIC ([4]; strain 109, read-out: MIC) of 1 µg/mL (≈ 2.48 µM). For the same compound, the MIC ([4]; strain 110, read-out: MIC) was 0.5 µg/mL (≈ 1.24 µM), the MIC ([4]; strain 111, read-out: MIC) was 0.5 µg/mL (≈ 1.24 µM) and the MIC ([4]; strain 112, read-out: MIC) was 2 µg/mL (≈ 4.96 µM). For the same compound, the MIC ([4]; strain 113, read-out: MIC) was 0.5 µg/mL (≈ 1.24 µM), the MIC ([4]; strain 114, read-out: MIC) was 2 µg/mL (≈ 4.96 µM) and the MIC [5] was 0.125 µg/mL (≈ 0.31 µM). The MIC ([6]; strain 9, readings 24 hrs. after incubation) was 4 µg/mL (≈ 9.91 µM), the MIC ([6]; strain 103, readings 24 hrs. after incubation) was 32 µg/mL (≈ 79.3 µM) and the MIC ([6]; strain 104, readings 24 hrs. after incubation) was 4 µg/mL (≈ 9.91 µM). The MIC ([6]; strain 106, readings 24 hrs. after incubation) was 4 µg/mL (≈ 9.91 µM), the MIC ([6]; strain 107, readings 24 hrs. after incubation) was 8 µg/mL (≈ 19.8 µM) and the MIC ([6]; strain 108, readings 24 hrs. after incubation) was 4 µg/mL (≈ 9.91 µM). It also gave an MIC ([6]; strain 110, readings 24 hrs. after incubation) of 8 µg/mL (≈ 19.8 µM), an MIC ([6]; strain 111, readings 24 hrs. after incubation) of 64 µg/mL (≈ 159 µM) and an MIC ([6]; strain 1877, readings 24 hrs. after incubation) of 8 µg/mL (≈ 19.8 µM). The MIC ([7]; strain 1438, readings 24 hrs. after incubation) was 4 µg/mL (≈ 9.91 µM), the MIC ([7]; strain 1900A, readings 24 hrs. after incubation) was 16 µg/mL (≈ 39.7 µM) and the MIC [8] was 32 µg/mL (≈ 79.3 µM). The MIC ([9]; strain 2041) was 64 µg/mL (≈ 159 µM), the MIC ([9]; strain X66) was 128 µg/mL (≈ 317 µM) and the “potency compared to known antibiotics” value [10] was “much more potent than those with which it was compared”. For the same compound, the “Stability to β-lactamase” value [11] was 25, the MIC [12] was 0.5 µg/mL (≈ 1.24 µM) and the MIC ([13]; geometric mean over strains, read-out: MIC Geometric mean) was 0.7 µg/mL (≈ 1.73 µM). It also gave an MIC [13, 20] of 1.2 µg/mL (≈ 2.97 µM), an MIC ([13]; strain 180-821, read-out: MIC) of 0.5 µg/mL (≈ 1.24 µM) and an MIC ([13]; strain 10668, read-out: MIC) of 0.5 µg/mL (≈ 1.24 µM). The MIC ([13]; strain 10683, read-out: MIC) was 0.5 µg/mL (≈ 1.24 µM), the MIC ([13]; strain 10695, read-out: MIC) was 0.5 µg/mL (≈ 1.24 µM) and the MIC ([13]; strain 10732, read-out: MIC) was 0.5 µg/mL (≈ 1.24 µM). It also gave an MIC ([13]; strain 10750, read-out: MIC) of 8 µg/mL (≈ 19.8 µM), an MIC ([13]; strain 10774, read-out: MIC) of 1 µg/mL (≈ 2.48 µM) and an MIC ([13]; strain 10817, read-out: MIC) of 0.5 µg/mL (≈ 1.24 µM). It also gave an MIC ([13]; strain 10837, read-out: MIC) of 0.5 µg/mL (≈ 1.24 µM), an MIC ([13]; strain 107266, read-out: MIC) of 0.5 µg/mL (≈ 1.24 µM) and an MIC ([13]; strain 107268, read-out: MIC) of 2 µg/mL (≈ 4.96 µM). It also gave an MIC ([13]; strain 108133, read-out: MIC) of 0.5 µg/mL (≈ 1.24 µM), an MIC ([14]; strain KAE) of 128 µg/mL (≈ 317 µM) and an MIC ([14]; strain X26) of 2 µg/mL (≈ 4.96 µM). For the same compound, the MIC ([14]; strain X68) was 128 µg/mL (≈ 317 µM), the “Stability to β-lactamase” value [15] was 3 and the MIC ([16]; strain 76) was 0.5 µg/mL (≈ 1.24 µM). It also gave an MIC ([16]; strain C.L.) of 2 µg/mL (≈ 4.96 µM), an MIC ([17]; strain EC14) of 32 µg/mL (≈ 79.3 µM) and an MIC ([17]; strain N10) of 128 µg/mL (≈ 317 µM). The MIC ([17]; strain TEM) was 32 µg/mL (≈ 79.3 µM), the “Stability to β-lactamase” value [18] was 210 and the “Stability to β-lactamase” value [19] was 25.
